Consider three compounds from patent US20110059909A1, “METHODS FOR TREATING INFLAMMATORY DISORDERS” (priority 2004, published 2011).

The subject of series [1] is primary cultured rat neocortical explants. The settings on record: cited from earlier work.
Series [2] shares this test system. The settings on record: cited from earlier work. The source holds these as a separate data set.
Another series has as its system mice. The note with it: cited from earlier work.
The subject of a further series is ERK1/2. The experiment in a line: ERK1/2 activation (phospho-ERK1/2 immunoblot) in primary astrocytes. Format: cell-based, rat. The settings on record: pretreated 0.5 h, TNFα 20 min. Here is the method:
(§1) For iNOS protein, the cells were washed with cold Tris buffered saline (TBS; 20 mM Trizma base, and 137 mM NaCl, pH 7.5), lysed in 1×SDS sample loading buffer (62.5 mM Trizma base, 2% w/v SDS, 10% glycerol), following sonication and centrifugation at 15,000×g for 5 min, the supernatant was used for the iNOS western immunoblot assay. The protein concentration of samples was determined with the detergent compatible protein assay reagent (Bio-Rad Laboratories, CA) using bovine serum albumin (BSA) as the standard. Sample was boiled for 3 min with 0.1 volumes of 10% β-mercaptoethanol and 0.5% bromophenol blue mix. Fifty μg of total cellular protein was resolved by electrophoresis on 8 or 12% polyacrylamide gels, electro-transferred to polyvinylidene difluoride (PVDF) filter and blocked with Tween 20 containing Tris-buffered saline (TBST; 10 mM Trizma base-pH 7.4, 1% Tween 20, and 150 mM NaCl) with 5% skim milk. After incubation with antiserum against iNOS (BD PharMingen, CA), rat GalT-2 (Abjent Inc., CA), H-Ras (Upstate Biotechnology, CA), GFAP (Santa Cruz Biotech, CA), or phospho-specific ERK1/2 (Cell signaling Tech Inc., MA), or pIκ-B (Signal Transduction), in PVDF buffer for 2 h at room temperature, the filters were washed 3 times with TBST buffer and then incubated with horseradish peroxidase conjugated anti-rabbit or mouse IgG for 1 h. The membranes were detected by autoradiography using ECL-plus (Amersham Pharmacia Biotech) after washing with TBST buffer.

The test system of another series is GalT-2. Nature of the series: GalT-2 activity assay on cell lysates. It counts as cell-based, rat. The note with it: LY pretreatment. Here is the method:
The activity of GalT-2 was measured using [^3H]UDP-galactose as the galactose donor and GlcCer as the acceptor as described previously (Yeh et al., 2001). Briefly, cells were harvested in PBS and cell pellets were suspended in Triton X-100 lysis buffer. Cell lysates were sonicated and following protein quantification, 100 μg of cell lysate was added to reaction mixture containing […] of cacodylate buffer (pH 6.8), 1 mM Mn/Mg, 0.2 mg/ml Triton X-100 (1:2 v/v), 30 nmol of GluCer and […] of UDP-[^3H]galactose in a total volume of 100 μl. The reaction was terminated by adding 10 μl of 0.25M EDTA, 10 μl of 0.5M KCl and 500 μl of Chloroform/Methanol (2:1 v/v) and the products were separated by centrifugation. The lower phase was collected and dried under nitrogen. Following resolution on HPTLC plates, the gel was cut out and radioactivity was measured in a scintillation counter. Assay without exogenous GluCer served as blank and their radioactivity counts were subtracted from all respective data points.

A further series addresses T1, LacCer synthase (GalT-2) (Rattus norvegicus, UniProt O88419).
T1 construct: using cell lysates derived from cells stimulated with LPS/IFNγ; endogenous in cells; host or cells: rat primary astrocytes
T1 sequence (O88419 1-382): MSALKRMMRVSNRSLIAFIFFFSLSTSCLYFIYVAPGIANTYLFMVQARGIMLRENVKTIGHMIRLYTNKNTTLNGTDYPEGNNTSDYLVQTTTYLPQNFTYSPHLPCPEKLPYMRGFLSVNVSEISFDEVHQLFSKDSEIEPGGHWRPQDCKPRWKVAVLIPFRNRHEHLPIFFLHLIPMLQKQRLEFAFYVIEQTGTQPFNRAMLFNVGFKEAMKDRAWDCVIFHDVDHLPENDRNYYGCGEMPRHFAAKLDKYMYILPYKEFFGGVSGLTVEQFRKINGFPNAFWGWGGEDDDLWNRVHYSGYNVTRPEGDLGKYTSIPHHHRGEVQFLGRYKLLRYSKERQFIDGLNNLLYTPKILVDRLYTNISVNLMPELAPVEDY
Nature of the series: Measurement of [14C]LacCer synthesis in primary astrocytes (HPTLC). The settings on record: TNFα 1 ng/ml. It counts as cell-based. Here is the method: Cultured cells were incubated in growth medium containing [^14C]galactose (5 μCi/ml) for 24 h as described previously. The medium was removed, and the cell monolayer was washed with sterile PBS. After the stimulation with LPS/IFNγ (1 μg/ml; 10 U/ml) for various durations, cells were then harvested and washed with ice cold PBS and lysed by sonication. 200 μg of protein was used for extraction of lipids using Chloroform:Methanol:HCl (100:100:1). The organic phase was dried under nitrogen. Glycosphingolipids were resolved by high performance thin layer chromatography using chloroform/methanol/0.25% KCl (70:30:4, v/v/v) as the developing solvent. The gel area corresponding to LacCer was scraped, and radioactivity was measured employing “liquiscint” (NEN Life Science Products) as a scintillating fluid.

The next series has as its system small GTPase Ras. Nature of the series: Quantification of Ras activation (GST-Raf-1 RBD pull-down) in primary astrocytes. It counts as cell-based, rat. The note with it: pretreated 0.5 h, TNFα. As to the method: After stimulation, primary astrocytes in 6-well plates were washed with ice cold PBS and lysed in membrane lysis buffer (MLB; 0.5 ml of 25 mM HEPES, pH 7.5, 150 mM NaCl, 1% Igepal CA-630, 0.25% sodium deoxycholate, 10% glycerol, 10 mM MgCl2, 1 mM EDTA, 25 mM NaF, 1 mM of sodium orthovanadate, and EDTA free Complete™ protease inhibitor cocktail). After centrifugation (5,000×g) at 4° C. for 5 min, supernatant was used for Ras activation assay. One hundred μg of supernatant was used for binding with agarose conjugated Ras-binding domain (RBD) of Raf-1 which was expressed in BL21 (Invitrogen), Escherichia coli strain, transformed by pGEX-2T-GST-RBD in the presence of 0.1 mM of IPTG as described previously (Herrmann et al., 1995). The binding reaction was performed at 4° C. for 30 min in MLB. Following washing with MLB three times, Ras-RBD complex were denatured by adding of 2×SDS sample buffer. Ras protein was identified by western blot analysis with Ras antibodies from Upstate Biotechnology.

In another series the test system is rat primary astrocytes. Nature of the series: BrdU incorporation assay, proliferation of primary astrocytes. The settings on record: pretreated 0.5 h (AS: 48 h after transfection), TNFα 1 ng/ml 18 h, BrdU incorporation. It counts as cell-based. As to the method: Primary astrocyte-enriched cultures were prepared from the whole cortex of one day old Sprague-Dawley rats as described earlier (Pahan et al., 1998b). Briefly, the cortex was rapidly dissected in ice-cold calcium/magnesium free Hanks Balanced Salt Solution (HBSS) (Gibco, Grand Island, N.Y.) at pH 7.4 as described previously (Won et al., 2001). The tissue was then minced, incubated in HBSS containing trypsin (2 mg/ml) for 20 min and washed twice in plating medium containing 10% FBS and 10 μg/ml gentamicin, and then disrupted by triturating through a Pasteur pipette following which cells were seeded in 75-cm^2 culture flasks (Falcon, Franklin, N.J.). After incubation at 37° C. in 5% CO2 for 1 day, the medium was completely changed to the culture medium (DMEM containing 5% FBS and 10 μg/ml gentamicin). The cultures received half exchanges with fresh medium twice a week. After 14-15 days the cells were shaken for at least 24 h on an orbital shaker to remove the microglia and then seeded on multi-well tissue culture dishes. The cells were incubated with serum-free DMEM for 24 h prior to the incubation with drugs.
Proliferation of primary astrocytes was assayed by using the Cell proliferation ELISA, BrdU colorimetric assay kit (Roche, Germany) according to manufacturer's protocol. Briefly, cells were seeded in 96 well plates in quadruplicate and following overnight serum starvation were stimulated with mitogenic stimulants. 2 h before termination of proliferation assay, BrdU (10 μM) was added to each well following which cells were fixed and levels of incorporated BrdU were assayed by using a conjugated anti-BrdU enzyme. Colorimetric analysis was done by measuring absorbance at 370 nm using a spectramax MAX 190 (Molecular devices) multi-well plate reading spectrophotometer.
A general note: Uptake of a labelled nucleoside into DNA is a usual measure of proliferation.

Another series concerns GFAP. Nature of the series: GFAP mRNA (real time PCR) and protein (immunoblot) in TNFα-stimulated primary astrocytes. The settings on record: TNFα 1 ng/ml; mRNA 8 h, protein 18 h. Format: cell-based, rat. Here is the method:
as §1
In general terms: In qPCR the cycle at which signal appears reflects the starting amount.

The subject of a further series is X-ALD patients. The note with it: cited from earlier work.

Structures are written as SMILES.

For `CCCCCCCCCC(=O)N[C@@H](CN1CCOCC1)[C@@H](O)c1ccccc1` [L-threo PDMP], in series [1], the GSL biosynthesis entry is “stimulated”. Further, the Neurite outgrowth result in series [2] is recorded as “stimulated”. Besides, the “LD50 values, L-threo PDMP compared to D-threo PDMP” value in the series with mice is reported as “higher”.
Take `O=c1cc(N2CCOCC2)oc2c(-c3ccccc3)cccc12` [LY, 2-(4-Morpholinyl)-8-phenyl-4H-1-benzopyran-4-one]: the “TNFα-induced ERK1/2 phosphorylation” value with ERK1/2 is “inhibited”. Further, the “TNFα-induced GalT-2 activation” value with GalT-2 is reported as “inhibition”. Moreover, on LacCer synthase (GalT-2), the “[14C]LacCer synthesis upon TNFα-stimulation” value was “inhibited”. Besides, the “TNFα-induced Ras activation” value in the series with small GTPase Ras is “inhibited”. In the series on rat primary astrocytes, the TNFα-induced astrocyte proliferation result was “significantly attenuated”. In the series on GFAP, the “TNFα-induced GFAP mRNA and protein expression” value was “inhibited”.
Regarding `CCCCCCCC/C=C\CCCCCCCC(=O)OCC(COC(=O)CCCCCCC/C=C\CCCCCCCC)OC(=O)CCCCCCC/C=C\CCCCCCCC` [trioleate], the “Reduction of VLCFA” value with X-ALD patients was 50%.
